Experimental data from paper PMC10894092, “Characterization of a recombinant Aspergillus niger GZUF36 lipase immobilized by ionic liquid modification strategy” (Applied Microbiology and Biotechnology, 2024).

System: T1, PEXANL1
T1 construct: gene EXANL1; recombinant extracellular lipase, secreted/purified from Pichia pastoris GS115
Test: p-nitrophenol release at […] nm, Lineweaver-Burk
Type: biochemical, Aspergillus niger
Settings: free enzyme; pH 5.0, 45 °C; 5-30 mM substrate range; phosphate-citrate buffer, substrate stock in 2-propanol

How did the Km turn out when `CCCCCCCCCCCCCCCC(=O)Oc1ccc([N+](=O)[O-])cc1` [p-nitrophenyl palmitate] was run?
The Km was 2650 µM.
